Data taken from US5643927A, “4-p-fluorobenzoyl-1-piperidinyl-propoxy-chromen-4-one derivatives, their preparation and their use in the treatment of psychosis and schizophrenia” (Ferrer Internacional, S.A., priority 1994, dated 1997).
Counter-ions that a name gives are not always drawn. Like-named read-outs stand apart in the source and are kept apart here.

Assays:
5HT2 receptors = biological target: T1, 5HT2 receptors (Rattus norvegicus, UniProt P14842); assay: 5HT2 receptor binding ([3H]ketanserin displacement); conditions: for IC50: [3H]ketanserin 0.5 nM, rat cortex membrane, 30 min, 35° C., pH 7.4; for specificity over 5HT2 receptors versus D2 receptors (in words): D2 /5HT2 ratio
T1 construct: membrane corresponding to 1 mg of rat cortex; from tissue; host or cells: rat cortex membranes
T1 sequence (P14842 whole entry): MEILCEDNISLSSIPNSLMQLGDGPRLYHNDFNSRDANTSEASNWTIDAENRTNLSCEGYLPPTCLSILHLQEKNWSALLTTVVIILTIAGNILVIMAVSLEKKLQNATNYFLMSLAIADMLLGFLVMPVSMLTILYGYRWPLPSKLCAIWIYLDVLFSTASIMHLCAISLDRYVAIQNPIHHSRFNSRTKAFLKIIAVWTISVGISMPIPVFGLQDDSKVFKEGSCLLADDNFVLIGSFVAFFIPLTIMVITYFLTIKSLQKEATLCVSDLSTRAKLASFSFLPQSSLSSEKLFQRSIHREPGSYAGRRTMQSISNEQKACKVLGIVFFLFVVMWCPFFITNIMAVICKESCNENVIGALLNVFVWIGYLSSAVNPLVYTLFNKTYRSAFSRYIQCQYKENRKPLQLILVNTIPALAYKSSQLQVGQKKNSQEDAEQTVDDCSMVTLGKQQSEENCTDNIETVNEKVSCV
Description: (§1) Specific binding to σ, D2, D3, 5H2 and 5HT1a receptors has been tested as follows:
5HT2 receptors: A 0.5 nM solution of radioactive ketanserin ([^3 H]ketanserin), which acts as a specific ligand, was incubated with the membrane corresponding to 1 mg of rat cortex for 30 min at 35° C. buffered at pH 7.4 with Tris.HCl. […] After the incubation was completed, the sample was filtered through a glass fiber filter and then washed three times with Tris.HCl buffer. The amount of receptor-bound radioactivity was retained on the membrane and determined by liquid scintillation counting.
(§2) Values are expressed as IC50 in molar concentrations.

D2 receptors = D2 receptors (Rattus norvegicus, UniProt P61169); assay: biochemical; format: binding
D2 receptors, sequence (P61169 whole entry): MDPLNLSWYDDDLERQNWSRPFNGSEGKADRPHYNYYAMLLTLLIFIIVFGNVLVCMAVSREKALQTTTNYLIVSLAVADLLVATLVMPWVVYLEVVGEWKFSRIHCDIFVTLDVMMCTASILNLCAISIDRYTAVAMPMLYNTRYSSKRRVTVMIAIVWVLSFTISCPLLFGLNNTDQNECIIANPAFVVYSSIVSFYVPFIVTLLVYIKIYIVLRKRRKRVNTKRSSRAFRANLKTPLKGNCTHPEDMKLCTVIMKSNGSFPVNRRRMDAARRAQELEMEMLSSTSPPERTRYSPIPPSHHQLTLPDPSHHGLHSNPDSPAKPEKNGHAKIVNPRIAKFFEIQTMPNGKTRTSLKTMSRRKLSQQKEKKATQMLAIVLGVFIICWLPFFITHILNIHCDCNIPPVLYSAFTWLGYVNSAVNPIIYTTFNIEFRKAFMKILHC
Description: as §1
D2 receptors: A 2-nM solution of radioactive spiperone ([^3 H]spiperone), which acts as a specific ligand, was incubated with the membrane corresponding to 20 mg of rat striatum for 20 min at 35° C. buffered at pH 7.4 with Tris.HCl. The non-specific binding was then determined by addition of a micromolar concentration of unlabelled spiperone. […] After the incubation was completed, the sample was filtered through a glass fiber filter and then washed three times with Tris.HCl buffer. The amount of receptor-bound radioactivity was retained on the membrane and determined by liquid scintillation counting.
as §2

D3 receptors = biological target: T2, D3 receptors (Homo sapiens, UniProt P35462); assay: biochemical; format: binding
T2 construct: purchased RBI; host or cells: mouse fibroblasts (CCL 1,3)
T2 sequence (P35462 whole entry): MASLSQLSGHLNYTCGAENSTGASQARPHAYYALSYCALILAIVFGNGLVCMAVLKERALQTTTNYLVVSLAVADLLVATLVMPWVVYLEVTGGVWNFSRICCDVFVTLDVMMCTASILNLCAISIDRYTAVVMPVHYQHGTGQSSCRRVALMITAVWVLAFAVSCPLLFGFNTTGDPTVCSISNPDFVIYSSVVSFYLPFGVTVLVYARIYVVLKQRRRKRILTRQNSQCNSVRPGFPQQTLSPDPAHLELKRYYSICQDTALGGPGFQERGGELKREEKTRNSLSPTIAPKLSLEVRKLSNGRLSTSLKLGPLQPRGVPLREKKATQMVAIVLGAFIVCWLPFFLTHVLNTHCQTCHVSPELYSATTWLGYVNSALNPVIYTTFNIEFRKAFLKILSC
Description: as §1
D3 receptors: A 0.1 nM solution of radioactive YM-0951 ([^3 H]YM-0951), which acts as a specific ligand, was incubated with the membrane provided by RBI obtained from mouse fibroblasts (CCL 1,3) for 15 min at 37° C., buffered at pH 7.4 with Tris.HCl. […] After the incubation was completed, the sample was filtered through a glass fiber filter and then washed three times with Tris.HCl buffer. The amount of receptor-bound radioactivity was retained on the membrane and determined by liquid scintillation counting.
as §2

σ receptors = σ receptors (Cavia porcellus, UniProt Q60492); assay: biochemical; format: binding
σ receptors, sequence (Q60492 whole entry): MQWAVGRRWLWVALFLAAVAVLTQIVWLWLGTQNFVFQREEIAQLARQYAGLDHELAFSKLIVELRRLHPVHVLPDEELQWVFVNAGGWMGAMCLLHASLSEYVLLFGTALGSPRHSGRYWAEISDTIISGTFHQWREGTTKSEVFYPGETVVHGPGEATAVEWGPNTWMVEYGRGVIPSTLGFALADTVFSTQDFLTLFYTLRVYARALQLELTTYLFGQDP
Description: as §1
σ receptors: A 2-nM solution of radioactive 3-PPP ((+) [^3 H]3-[3-hydroxyphenyl]-N-(1-propyl)-piperidine), which acts as a specific ligand, was incubated with the membrane corresponding to 40 mg of guinea-pig total brain for 90 min at 25° C. buffered at pH 8.5 with Tris.HCl. Thus, total binding of ligand to membranes was attained. Non-specific binding was then determined by adding a micromolar concentration of unlabelled 3-PPP. […] After the incubation was completed, the samples were filtered through a glass fiber filter and then washed three times with Tris.HCl buffer. The amount of receptor-bound radioactivity was retained on the membrane and determined by liquid scintillation counting.
as §2

5HT1a receptors = biological target: T3, 5HT1a receptors (Rattus norvegicus, UniProt P19327); assay: biochemical; format: binding
T3 sequence (P19327 1-422): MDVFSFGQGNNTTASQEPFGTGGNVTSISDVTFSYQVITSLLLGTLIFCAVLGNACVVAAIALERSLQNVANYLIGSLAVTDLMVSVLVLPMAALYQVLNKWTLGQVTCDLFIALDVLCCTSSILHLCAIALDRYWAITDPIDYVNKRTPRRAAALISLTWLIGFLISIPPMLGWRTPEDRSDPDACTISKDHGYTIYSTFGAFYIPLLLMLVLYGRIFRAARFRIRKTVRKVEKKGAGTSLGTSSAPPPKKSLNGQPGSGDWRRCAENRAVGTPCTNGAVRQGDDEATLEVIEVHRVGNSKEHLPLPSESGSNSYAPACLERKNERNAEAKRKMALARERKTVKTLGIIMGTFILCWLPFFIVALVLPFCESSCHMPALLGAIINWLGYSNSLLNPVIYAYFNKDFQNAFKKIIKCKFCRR
Description: as §1
5HT1a receptors: A 1 nM solution of radioactive […], which acts as a specific ligand, was incubated with the membrane corresponding to 1 mg of rat cortex for 20 min at 35° C. buffered at pH 7.4 with Tris.HCl. Non-specific binding was then determined by addition of a 20 micromolar concentration of unlabelled buspirone. […] After the incubation was completed, the sample was filtered through a glass fiber filter and then washed three times with Tris.HCl buffer. The amount of receptor-bound radioactivity was retained on the membrane and determined by liquid scintillation counting.
as §2

catalepsy = catalepsy in rats after oral administration (extrapyramidal effects); format: in vivo; conditions: rats, oral
[1] = as above; format: in vivo; conditions: rat, in vivo, po
[2] = animal pharmacological tests (overall statement); conditions: in vivo
[3] = system: apomorphine-induced climbing behaviour; assay: Test (C): Inhibition of apomorphine-induced climbing behaviour; format: in vivo, Male Swiss mice; conditions: Mus musculus, 1 h; oral, mice; apomorphine 1 mg/kg s.c. after 60 min; climbing assessed after further 60 min
Description: One week prior to experiment, animals were kept in our facilities at a temperature of 20°-22° C. and 12/12 h light-dark cycle, and had free access to food and water. Two hours prior to experiment, the animals were placed in individual cages without access to food.
Two additional assessments were performed at 10-min intervals.
The walls of the box were made of translucent methacrylate except one of the lateral surfaces (7.5 cm wide) which was a 3-mm wire mesh. […] If an animal keeps several positions within the 2-min observation, the seconds elapsed in each position will be recorded. Finally, mean scoring was calculated.

[4] = [3H]spiperone 2 nM, rat striatum membrane, 20 min, 35° C., pH 7.4, read-out: IC50 (M) D2
[5] = [3H]YM-0951 0.1 nM, membrane from mouse fibroblasts (CCL 1,3), 15 min, 37° C., pH 7.4, read-out: IC50 (M) D3
[6] = [3H]3-PPP 2 nM, guinea-pig total brain membrane, 90 min, 25° C., pH 8.5, read-out: IC50 (M) σ
[7] = [3H]5-OH-DPAT 1 nM, rat cortex membrane, 20 min, 35° C., pH 7.4, read-out: IC50 (M) 5HT1A

Row | Compound | IC50 (5HT2 receptors) | IC50 (D2 receptors; [4]) | IC50 (D3 receptors; [5]) | IC50 (σ receptors; [6]) | IC50 (5HT1a receptors; [7]) | other results
1 | OC(CCCN1CCN(c2ncc(F)cn2)CC1)c1ccc(F)cc1 (centres unmarked) [BMY-14802, reference compound] | 1150 nM | 1.59e-05 M | – | – | – | –
2 | Cl.O=C(c1ccc(F)cc1)C1CCN(CCCOc2ccc3c(=O)ccoc3c2)CC1 [Example 1, 7-[3-(4-p-fluorobenzoyl-1-piperidinyl)propoxy]chromen-4-one hydrochloride] | 17.1 nM | 4.36e-07 M | 6.88e-08 M | 1.46e-08 M | 1.56e-06 M | activity on D3 receptors (in words) (D3 receptors; compared with 7-OH-DPAT): active on D3 receptors in the same order as 7-OH-DPAT; specificity over 5HT2 receptors versus D2 receptors (in words) (5HT2 receptors; hydrochloride): the most specific over 5HT2 receptors versus D2 receptors; specificity over 5HT2 receptors versus D2 receptors (in words) (5HT2 receptors; listed as Ex. 1, hydrochloride): surpasses BMY-14802 and risperidone in D2 /5HT2 ratio
3 | Cc1cc(=O)c2ccc(OCCCN3CCC(C(=O)c4ccc(F)cc4)CC3)cc2o1 [Example 2, 7-[3-(4-p-fluorobenzoyl-1-piperidinyl)propoxy]-2-methyl-chromen-4-one hydrochloride] | 56.6 nM | 3.74e-07 M | 8.55e-07 M | 7.99e-07 M | 1.57e-06 M | –
4 | Cc1coc2cc(OCCCN3CCC(C(=O)c4ccc(F)cc4)CC3)ccc2c1=O [Example 3, 7-[3-(4-p-fluorobenzoyl-1-piperidinyl)propoxy]-3-methyl-chromen-4-one hydrochloride] | 82 nM | – | – | – | – | IC50 (D3 receptors): 1.94e-07 M; IC50 (D2 receptors): 1.29e-07 M; IC50 (σ receptors): 2.43e-07 M; IC50 (5HT1a receptors): 7.64e-07 M
5 | Cl.O=C(c1ccc(F)cc1)C1CCN(CCCOc2ccc3c(=O)c(CO)coc3c2)CC1 [Example 4, 3-Hydroxymethyl-7-[3-(4-p-fluorobenzoyl-1-piperidinyl)propoxy]-chromen-4-one hydrochloride] | 47.4 nM | – | – | – | – | extrapyramidal effects (in words) (catalepsy): did not show very important extrapyramidal effects; TD50 [1]: 15 mg/kg; D2 /5HT2 (5HT2 receptors; ratio of IC50 D2 to IC50 5HT2): 4.01; activity in animal pharmacological tests (in words) [2]: very active in animal pharmacological tests; ED50 [3]: 3.2 mg/kg
